Experimental data from paper PMC2745359, “Engineering and validation of a novel lipid thin film for biomembrane modeling in lipophilicity determination of drugs and xenobiotics” (Journal of Biological Engineering, 2009).

What was measured:
[1] = parameters: method as in PMID 17767395; conditions: clinical use; cited from earlier work
[2] = RPTLC lipophilicity determination on silica-supported leucaena oil (LO) lipid film
Source text: (§1) Liquid paraffin in n-hexane (5% w/v) was used as coating solution of silica gel support, to produce the layer which was taken as benchmark. Thin film of liquid paraffin was placed on the silica surface by ascending development of the TLC plates in the coating solution and allowing the plates to air dry afterwards.
(§2) The optimal film thickness was designed by testing the alternative films against array of LP benchmark requirements and constraint. Using nabumetone as model compound and varying the concentration of organic modifier (methanol) in the mobile phase, a plot of linear regression of Rm against methanol fraction was made for LP and all alternative LO layers. Rm was obtained from the expression [drawing 1] where Rf is the chromatographic retardation factor [5]. Retention behavior of nabumetone on LP was compared with its behavior on the alternative LO layers by statistical comparison of the slope (S, specific hydrophobic surface area) and y-intercept, (Rmw, basic lipophilicity parameter) of the regression plot of Rm versus methanol fraction. The retention behavior is described by the regression equation: Rm = Sφ + Rmw (where φ is the methanol fraction). Plate development cycle time for a specific methanol fraction (0.5) was set as design constraint. This was compared by recording the time required for the mobile phase (50% methanol) to traverse 7 cm path length of the various silica-supported layers.
(§3) The engineered lipid film was validated by comparing its performance with the prior art; liquid paraffin film and octadecysilane (ODS) bonded phase, which was selected as reference.
(§4) The computational model employed is a transformation of the planar chromatographic retardation factor Rf according to the following equation: […]
(§5) Linear regression of the Rm values against the fraction of methanol organic modifier in the mobile phase was performed according to the equation: […]
(§6) S, is the specific hydrophobic surface area, while Rmw is the basic lipophilicity parameter calculated from the chromatographic data. The ultimate derived lipophilicity parameter of interest is the isocratic chromatographic hydrophobicity index (φo), which signifies the methanol fraction that will produce half-maximum solute migration on the chromatogram for each compound. […] Derived lipophilicity parameter (φo) values were correlated with Log P and several ChemSketch calculated molecular descriptors to provide quantitative structure property relationships (QSPR) as previously described.

[3] = RPTLC lipophilicity determination on octadecylsilane (ODS) bonded layer; conditions: for S (specific hydrophobic surface area): slope of Rm vs methanol fraction; for φo (isocratic chromatographic hydrophobicity index): φo = -Rmw/S, methanol modifier
Experimental: as §3, §4, §5, §6

[4] = RPTLC lipophilicity determination on liquid paraffin (LP) film; conditions: 5% LP film; for S (specific hydrophobic surface area): slope of Rm vs methanol fraction; for Rmw (basic lipophilicity parameter): y-intercept of Rm vs methanol fraction; for φo (isocratic chromatographic hydrophobicity index): φo = -Rmw/S, methanol modifier
Source text: as §1, §2, §3, §4, §5, §6

[5] = ref 31 (ADBA), 32 (NPX), 33 (NBT), 34 (HF); cited from earlier work
[6] = 3.75% LO film, slope of Rm vs methanol fraction
[7] = 3.75% LO film, y-intercept of Rm vs methanol fraction
[8] = 3.75% LO film, φo = -Rmw/S, methanol modifier
[9] = ODS layer, y-intercept of Rm vs methanol fraction

Row | Structure (SMILES) | S (specific hydrophobic surface area) [2, 6] | Rmw (basic lipophilicity parameter) [2, 7] | φo (isocratic chromatographic hydrophobicity index) [2, 8] | S (specific hydrophobic surface area) ([3]; ODS layer) | Rmw (basic lipophilicity parameter) [3, 9] | φo (isocratic chromatographic hydrophobicity index) ([3]; ODS layer) | S (specific hydrophobic surface area) [4] | Rmw (basic lipophilicity parameter) [4] | φo (isocratic chromatographic hydrophobicity index) [4] | Log P (octanol/water) [5] | further results
1 | CC(C)(C)c1ccc(C(O)CCCN2CCC(C(O)(c3ccccc3)c3ccccc3)CC2)cc1 (stereo not drawn) [Terfenadine, terfenadine] |  |  |  |  |  |  |  |  |  |  | Cardiotoxicity (QT prolongation) [1]: withdrawn from clinical use because of cardiotoxicity
2 | CCCCN(CCCC)CCC(O)c1cc2c(Cl)cc(Cl)cc2c2cc(C(F)(F)F)ccc12 (stereo not drawn) [Halofantrine, halofantrine] | -8.13 | 8.40 | 1.03 | -4.55 | 4.94 | 1.09 | -6.54 | 6.76 | 1.03 | 3.25 | 
3 | COc1ccc2cc(CCC(C)=O)ccc2c1 [Nabumetone, nabumetone] | -3.95 | 2.58 | 0.66 | -3.13 |  | 0.89 | -3.48 | 2.43 | 0.70 | 3.27 | Rmw (basic lipophilicity parameter) ([2]; 1.25% LO film): 1.05; S (specific hydrophobic surface area) ([2]; 1.25% LO film): -2.33; φo (isocratic chromatographic hydrophobicity index) ([2]; 1.25% LO film): 0.45; Rmw (basic lipophilicity parameter) ([2]; 2.5% LO film): 1.94; S (specific hydrophobic surface area) ([2]; 2.5% LO film): -3.14; φo (isocratic chromatographic hydrophobicity index) ([2]; 2.5% LO film): 0.62; Rmw (basic lipophilicity parameter) ([2]; 5% LO film): 3.48; S (specific hydrophobic surface area) ([2]; 5% LO film): -4.67; φo (isocratic chromatographic hydrophobicity index) ([2]; 5% LO film): 0.75; Rmw (basic lipophilicity parameter) [3]: 2.77
4 | Nc1c([N+](=O)[O-])cc(C(=O)O)cc1[N+](=O)[O-] [ADBA, 4-amino-3,5-dinitrobenzoic acid] | -8.84 | -0.646 | -0.073 | -1.41 | -0.102 | -0.073 | -5.99 |  | -0.081 | -1.50 | 
